Consider four compounds from patent publication US20070031336A1, “3H-phenoxazine derivatives suitable as near-infrared imaging agents, preparation an use thereof” (priority 2003, published 2007).

Series [1] is described as follows: UV/VIS absorption spectra. In kind it is physicochemical. The procedure: (§1) UV/VIS and fluorescence spectra are recorded and analyzed. For UV/VIS spectra, a Lambda 19 spectrometer from Perkin Elmer equipped with cells of 1.000 cm pathlength is used. The scan rate is 120 nm/min. The fluorescence data are obtained on a Spex Fluorolog (I.S.A.) spectrometer equipped with a cooled R928 detector (Slit 1 mm). Quantum yields are determined by using Cresylviolett (exc. 595 nm, yield=0.54) as standard.

A short description of series [2]: Fluorescence spectra and quantum yield. It counts as physicochemical. Conditions: for Fluorescence φ (quantum yield): standard Cresylviolett. The procedure: as §1
The target of series [3] is T1, aggregated Aβ peptide Aβ1-140 (Homo sapiens, UniProt P05067).
T1 construct: aggregated Aβ peptide Aβ1-140 in solution
Briefly: Binding to aggregated Aβ in solution by differential fluorescence spectroscopy. As for the experimental part:
(§2) Binding of the agent of the invention (compound Ex. 3) to aggregated Aβ peptide Aβ1-140 in solution is investigated by differential fluorescence spectroscopy and thioflavine displacement. […] Difference spectra are recorded at different concentrations of the agent of the invention (compound Ex. 3) with the magnitude of the fluorescence shift being dependent on the concentration of aggregated Aβ. Saturation is observed at high concentrations of the agent of the invention (compound Ex. 3), and the Kd-value for the agent of the invention (compound Ex. 3) is estimated to be 0.2 μM. In another experiment, aggregated Aβ is incubated with thioflavine T, where fluorescence intensity at 460-560 nm (excitation 445 nm) represents thioflavine bound to aggregated Aβ.

For series [4], the system named is AD plaques. In words: In vivo near-infrared imaging in APP23 mice. On the set-up: species or system mouse. Conditions: female 16-months-old transgenic APP23 mice, 3 mg/kg i.v. The procedure:
For in vivo near-infrared imaging, 10- to 24-months-old transgenic APP23 mice (3≦n≦5) and as control, non-transgenic APP23 mice of the same age (3≦n≦4) are injected intravenously (i.v.) into the tail-vein with 0.1, 1 and 3 mg/kg agent of invention (0.1, 1 and 3 mg/10 ml in 0.9% saline). Images are recorded 30, 60, 120 and 240 min after systemic administration.

Series [5] concerns the target T2, aggregated Aβ (Homo sapiens, UniProt P05067).
T2 construct: aggregated Aβ peptide Aβ1-140 in solution
In words: Thioflavine T displacement from aggregated Aβ. Conditions: fluorescence 460-560 nm, excitation 445 nm. It counts as binding. As for the experimental part: as §2

For series [6] the following is noted: exc. 595 nm; cited from earlier work.

T1 sequence (P05067 672-711 limits assumed): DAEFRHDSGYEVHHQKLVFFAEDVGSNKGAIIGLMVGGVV
T2 sequence (P05067 672-711 limits assumed): as above

In the case of `CC[N+]1=c2cc3c(cc2CCC1)=Nc1cc2c(cc1O3)N(C)CCO2.[Cl-]` [Ex. 2, 8-Ethyl-4-methyl-2,3,4,9,10,11-hexahydro-1,6-dioxa-4,13-diaza-8-azonia-pentacen chloride], the “Absorption ε” value was 56700 I/Mcm in series [1] (solvent H2O) and 67430 I/Mcm in series [1] (solvent methanol). The entries for the “Absorption λmax” value in series [1] (solvent H2O), in series [1] (solvent methanol) and in series [1] (solvent mouse serum) were 657 nm, 649 nm and 658 nm, respectively. Moreover, the “Fluorescence λmax” value in series [2] (solvent H2O), in series [2] (solvent methanol) and in series [2] (solvent mouse serum) was 677 nm throughout. In addition, the entries for the “Fluorescence φ (quantum yield)” value in series [2] (solvent H2O), in series [2] (solvent methanol) and in series [2] (solvent mouse serum) were 24%, 61% and 28%, respectively.
Consider `CN1CCOc2cc3c(cc21)Oc1cc2c(cc1=N3)SCC[N+]=2C.[Cl-]` [Ex. 4, 4,8-Dimethyl-2,3,9,10-tetrahydro-4H-1,6-dioxa-11-thia-4,13-diaza-8-azonia-pentacen chloride], for which the “Absorption ε” value in series [1] (solvent H2O) was found to be 12880 I/Mcm; in series [1] (solvent methanol) it was 13920 I/Mcm. For the same compound, the “Absorption λmax” value in series [1] (solvent H2O) is on record as 665 nm; in series [1] (solvent methanol), 659 nm; in series [1] (solvent mouse serum) it was 665 nm. Further, the “Fluorescence λmax” value in series [2] (solvent H2O), in series [2] (solvent methanol) and in series [2] (solvent mouse serum) was 695 nm each time. Moreover, the “Fluorescence φ (quantum yield)” value in series [2] (solvent H2O) is given as 12%; in series [2] (solvent methanol), 28%; in series [2] (solvent mouse serum), 13%.
Consider `CN1CCOc2cc3c(cc21)Oc1cc2c(cc1=N3)OCC[N+]=2C.F[B-](F)(F)F` [Ex. 3, 4,8-Dimethyl-3,8,9,10-tetrahydro-2H-1,6,11-trioxa-8,13-diaza-4-azonia-pentacen tetrafluoroborate], for which the “Absorption ε” value in series [1] (solvent H2O) was determined as 61930 I/Mcm; in series [1] (solvent methanol), 64570 I/Mcm. Also, the “Absorption λmax” value in series [1] (solvent H2O) was determined as 650 nm; in series [1] (solvent methanol) it was 644 nm; in series [1] (solvent mouse serum) it was 650 nm. The Kd in series [3] (estimated from difference spectra, saturation at high concentrations) is approximately 200 nM; in series [5] (thioflavine concentrations 0.37 μM-3 μM, read-out: apparent binding constants), 100 to 200 nM. Also, the “Change of fluorescence spectrum upon β-amyloid binding” value in series [3] (range of 680-720 nm) is given as “slightly reduced fluorescence intensity”. Besides, in series [4], the “Specific binding to AD plaques (FIG. 1)” value was “specific binding”. Also, the “Effect on fluorescence of thioflavine bound to aggregated Aβ” value in series [5] is reported as “concentration-dependent fluorescence reduction”. Moreover, the “Fluorescence λmax” value in series [2] (solvent H2O), in series [2] (solvent methanol) and in series [2] (solvent mouse serum) was 670 nm throughout. The “Fluorescence φ (quantum yield)” value in series [2] (solvent H2O) was 37%; in series [2] (solvent methanol), 61%; in series [2] (solvent mouse serum), 41%.
For `N=c1ccc2nc3c(cc(N)c4ccccc43)oc-2c1` [Cresylviolett], the “Quantum yield of the standard” value in series [6] is 0.54.
